Reference: patent US12421216B2, “Voruciclib polymorphs and methods of making and using thereof” (MEI PHARMA, INC., priority 2019, dated 2025)
“Also recorded” adds a separate entry of the source. Counter-ions that a name gives are not always drawn.

Columns and labels:
Format in all cases: physicochemical
[1] = Qualitative solubility determination in water at room temperature, with observation of gel formation; details: for Behaviour upon addition of water (gel formation): small amount of water added to solid
Procedure: The aqueous solubility of Oxa2 (starting material) was assessed by the qualitative solubility determination approach. To 5.4 mg of Oxa2, water was added in steps of 50 μl until the material was dissolved (Exp. ID: SAS1). Visual inspection by the naked eye was used to decide whether complete dissolution occurred.
After the addition of 7.5 ml water, Oxa2 was not dissolved in water at room temperature. The suspension was heated to 50° C. upon which complete dissolution occurred, as indicated by a clear solution.
The aqueous solubility of Pho1 (Exp. ID: TCP23) was assessed by the qualitative solubility determination approach. To 5.6 mg of Pho1, water was added in steps of 50 μl until the material was dissolved (Exp. ID: SAS2). Visual inspection by the naked eye was used to decide whether complete dissolution occurred. After the addition of 700 μl water, Pho1 was not dissolved in water at room temperature whereas after a subsequent addition of 200 μl water (900 μl in total), the material completely dissolved.
The solubility of Mao1 in water was determined by adding small aliquots of water to the material until it was dissolved.

[2] = Solubility of salts in water and in 0.2 M phosphate buffer pH 6 at 37° C. after 4 hours (HPLC-DAD); details: for Dissolution behaviour in aqueous media (gelling, wettability): salt screen, water and/or 0.2 M phosphate buffer pH 6; for pH (4 h): pH at end of equilibration
In short: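 About 5 mg of salt received 200 μL aliquots of water or 0.2 M phosphate buffer pH 6, up to 1 mL, and was stirred at 37 °C for 4 h. After centrifugation and 0.2 […] PTFE filtration, dissolved concentration was determined by HPLC-DAD against voruciclib calibration, and final pH was recorded.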

[3] = Physical stability of solid forms upon drying under vacuum, HT-XRPD; details: for Physical stability upon drying under deep/high vacuum: oxalate, phosphate, malonate forms, 5 mbar, 18 h
Procedure: (§1) Amorphous voruciclib oxalate salt, generated by freeze-drying, was used to start the thermocycling experiments. Suspensions were prepared in the selected solvent systems at RT. Subsequently, the mixtures were subjected to a temperature profile. After the temperature profile, the solids were separated from the solutions by centrifugation and were dried at ambient conditions and under deep vacuum before being harvested and analyzed by HT-XRPD. The liquid phases were also dried under deep vacuum before being harvested and analyzed by HT-XRPD. All solids were exposed to AAC (40° C./75% RH, 2 days).
(§2) After the temperature profile, the solids were separated from the liquids by centrifugation and the solid phase was dried at ambient conditions and under deep vacuum (5 mbar) before being harvested and analyzed by HT-XRPD. The liquid phases were dried under deep vacuum (5 mbar) and the recovered solids were analyzed by HT-XRPD. All solids were then exposed to accelerated aging conditions (40° C./75% RH, 2 days) followed by HT-XRPD re-analysis.
as §1, with “voruciclib phosphate” for “voruciclib oxalate”, “profile. Upon completion of” for “profile. After”, “dried under” for “dried at”
as §2, with “dried under” for “dried at”, “(5 mbar, 18 h)” for “(5 mbar)”
Amorphous voruciclib malonate salt, generated by freeze-drying, was used to start the thermocycling experiments. Suspensions were prepared in the selected solvent systems at RT and were subjected to three thermocycles between 50 and 5° C., followed by aging at 25° C. for 3 days. Upon completion of the aging time, the solids were separated from the liquids by centrifugation and they were dried at ambient conditions and under deep vacuum (5 mbar) before being harvested and analyzed by HT-XRPD.
After the temperature profile the solids were separated from the solution by centrifugation and they were dried at ambient conditions and under deep vacuum before being harvested and analyzed by HT-XRPD.

[4] = Physical stability upon exposure to accelerated aging conditions (AAC, 40° C./75% RH), re-analysis by HT-XRPD; details: for Physical stability upon exposure to AAC: HT-XRPD before and after; for Stable during AAC: salt screen solids
[5] = 0.2 M phosphate buffer pH 6, 37° C., 4 hours
[6] = 0.2M phosphate buffer pH 6, 37° C., 4 hours, about 1 mg salt in 1 mL
[7] = 0.2M phosphate buffer pH 6, 37° C., 4 hours, about 5 mg salt in 1 mL
[8] = 0.2 M phosphate buffer pH 6, 37° C., 4 hours, XRPD
[9] = 0.2M phosphate buffer pH 6, 37° C., about 1 mg salt in 1 mL
[10] = 0.2M phosphate buffer pH 6, 37° C., about 5 mg salt in 1 mL
[11] = water, 37° C., 4 hours, about 1 mg salt in 1 mL
[12] = water, 37° C., 4 hours, about 5 mg salt, up to 1 mL
[13] = water, 37° C., about 1 mg salt in 1 mL
[14] = water, 37° C., about 5 mg salt, up to 1 mL

Stable during AAC ([4]; 40° C./75% RH, 2 days) | Solubility in phosphate buffer [2, 5] | solubility [2, 6] | solubility [2, 7] [µg/mL] | Form (4 h) of residual solid [2, 9] | pH (4 h) [2, 9] | Form (4 h) of residual solid [2, 10] | pH (4 h) [2, 10] | solubility [2, 11] | solubility [2, 12] | pH (4 h) [2, 13] | pH (4 h) [2, 14] | SMILES | Behaviour upon addition of water (gel formation) [1] | Dissolution behaviour in aqueous media (gelling, wettability) [2] | Physical stability upon drying under deep/high vacuum [3] | Physical stability upon exposure to AAC ([4]; 40° C./75% RH, 2 days) | Solids recovered / salt dissociation after solubility determination in buffer [2, 8] | also measured
 |  |  |  |  |  |  |  |  |  |  |  | CN1CC[C@H](c2c(O)cc(O)c3c(=O)cc(-c4ccc(C(F)(F)F)cc4Cl)oc23)[C@H]1CO (stereo in doubt) [voruciclib malonate, 2-(2-chloro-4-(trifluoromethyl)phenyl)-5,7-dihydroxy-8-((2S,3R)-2-(hydroxymethyl)-1-methylpyrrolidin-3-yl)-4H-chromen-4-one malonate salt] | gelling was not observed when exposed to water | no gelling |  |  |  | Solubility pH 6 [2, 5]: 0.07 mg/mL; Solubility water ([2]; water, 37° C., 4 hours): 4400 µg/mL; solubility at 4 h ([2]; water, 37 °C, thermodynamic from solid, secondary salt screen (FIG. 290)): > 5000 µg/mL
Yes | 70 µg/mL | 20 µg/mL | 70 | Free | 6.2 | Free | 5.8 | (0.9) mg/mL | 4440 µg/mL | 4.1 | 3.5 | CN1CC[C@@H](c2c(O)cc(O)c3c(=O)cc(-c4ccc(C(F)(F)F)cc4Cl)oc23)[C@@H]1CO.O=C(O)CC(=O)O [Mao1] | no gel-formation was observed; also recorded: gel formation was not observed | there was no gelling or increase in viscosity observed | physically stable | physically stable upon exposure to AAC; also recorded: physically stable upon exposure to stress conditions | dissociation of the salt occurred | Solubility in water at room temperature ([1]; qualitative determination by adding aliquots of water, visual): approximately 13 mg/ml; Physically stable ([4]; malonate salt forms, exposure to AAC 40° C./75% RH, 2 days): Yes; Solid forms: Ambient-dried solid (AAC) ([4]; malonate salt thermocycling experiments, label = form of the ambient-dried solid before AAC, 40° C./75% RH, 2 days, HT-XRPD): Mao1; Solid forms: Evap. ML (AAC) ([4]; malonate salt thermocycling experiments, label = form of the solid from the evaporated mother liquor before AAC, 40° C./75% RH, 2 days, HT-XRPD): Mao1; Solid forms: Vacuum-dried solids (AAC) ([4]; malonate salt thermocycling experiments, label = form of the vacuum-dried solid before AAC, 40° C./75% RH, 2 days, HT-XRPD): Mao1; Liquid phase AAC (XRPD form after accelerated aging) ([4]; solids from evaporated mother liquors of the salt screen, 40° C./75% RH for 2 days, HT-XRPD): Mao1; Solubility in water ([2]; water, 37° C., 4 hours): 4400 µg/mL; Solids recovered after solubility determination in water ([2]; water, 37° C., 4 hours, XRPD): the solids recovered were still identical to Mao1; Form (4 h) of residual solid [2, 14]: Mao1
Yes | about 0.03 mg/mL | hazy | 30 | Free | 6.0 | Free | 5.8 | (0.9) mg/mL | (5.2) mg/mL | 4.6 | 3.7 | CN1CCC(c2c(O)cc(O)c3c(=O)cc(-c4ccc(C(F)(F)F)cc4Cl)oc23)C1CO.O=P(O)(O)O (stereo not drawn) [Pho1] | became a gel when exposed to water; also recorded: became a gel upon addition of water; also recorded: became a gel-like material | no gelling was observed | physically stable; also recorded: remained stable | the only stable from when exposed to advance aging conditions; also recorded: physically stable under AAC for 2 days; also recorded: physically stable upon exposure to AAC for two days; also recorded: remained stable | salt had dissociated in the buffer solution | Vacuum ([3]; phosphate salt cooling crystallization, form after drying under deep vacuum (5 mbar), label = ambient-dried form): Pho1; Solid forms Vacuum ([3]; phosphate salt thermocycling solids, form after drying under deep vacuum (5 mbar, 18 h), HT-XRPD, label = ambient-dried form): Pho1; Solid phase AAC (XRPD form after accelerated aging) ([4]; precipitated solids of the salt screen, dried under vacuum at 50° C., 40° C./75% RH for 2 days, HT-XRPD): Pho1
